Measured values taken from patent publication US20250367129A1, “Lipid Compounds and Uses Thereof” (Pfizer Inc., priority 2022, published 2025).

Legend:
[1] = LNP size and polydispersity index by Malvern Zetasizer dynamic light scattering (CA HA modFlu mRNA LNPs); assay type: physicochemical; conditions: DLS; for Size (nm): LNP of the ionizable lipid:cholesterol:DSPC:ALC-0159 about 46.3:42.7:9.4:1.6, N:P about 6:1, CA HA modFlu mRNA; for PDI: LNP with CA HA modFlu mRNA
How it was run: (§1)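 LNPs of ionizable lipid:cholesterol:DSPC:ALC-0159 (molar ratio about 46.3:42.7:9.4:1.6) formed by syringe-pump mixing of ethanolic lipids with mRNA at N:P about 6:1, then dialysed into buffer (e.g., Tris) and filtered. Size and PDI measured by DLS; total RNA and encapsulation efficiency by RiboGreen.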

[2] = Encapsulation efficiency, RiboGreen RNA quantitation assay (CA HA modFlu mRNA LNPs); assay type: physicochemical; conditions: LNP with CA HA modFlu mRNA
How it was run: as §1

[3] = test system: HEK293F cells; experiment: In vitro expression of novel ionizable lipid nanoparticles, high content imaging (CA HA modFlu mRNA); assay type: cell-based; conditions: LNP with CA HA modFlu mRNA
How it was run: (§2)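 Lipid nanoparticles of ionizable lipid, cholesterol, DSPC and ALC-0159 (about 46.3:42.7:9.4:1.6 molar), N:P about 6:1, carrying mRNA, dosed onto cells overnight at 37° C., 5% CO2. Cells fixed and stained with Hoechst plus antibody to encoded protein; nuclei and antigen-positive cells counted by high-content imaging.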

[4] = test system: Hela cells; experiment: as above; assay type: cell-based; conditions: LNP with CA HA modFlu mRNA
How it was run: as §2

## CCCCCCCC(CCCCCCC)C(=O)O[C@@H]1CC2(CCN(CCCO)CC2)C[C@H]1OC(=O)C(CCCCCCC)CCCCCCC (racemic) [Example 54, rac-(2R,3R)-8-(3-hydroxypropyl)-8-azaspiro[4.5]decane-2,3-diyl bis(2-heptylnonanoate)]
[1]
  Size (nm): 71 nm
  PDI: 0.101
[2]
  EE %: 98%
[3]
  EC50 Hek293F (ng/well): 1.5 ng/well
[4]
  EC50 Hela (ng/well): 3.6 ng/well

## CCCCCCCCC(CCCCCC)C(=O)OCC(COC(=O)C(CCCCCC)CCCCCCCC)N1CCC2(CCN(CCCCCO)C2)C1 (centres unmarked) [Example 16, 2-(7-(5-hydroxypentyl)-2,7-diazaspiro[4.4]nonan-2-yl)propane-1,3-diyl bis(2-hexyldecanoate)]
[1]
  Size (nm): 134 nm
  PDI: 0.090
[2]
  EE %: 99%
[3]
  EC50 Hek293F (ng/well): 0.11 ng/well
[4]
  EC50 Hela (ng/well): 0.18 ng/well

## CCCCCCCCC(CCCCCC)C(=O)OCC(COC(=O)C(CCCCCC)CCCCCCCC)N1CCC2(CCN(C(C)CCCO)CC2)CC1 (centres unmarked) [Example 21, 2-(9-(5-hydroxypentan-2-yl)-3,9-diazaspiro[5.5]undecan-3-yl)propane-1,3-diyl bis(2-hexyldecanoate)]
[1]
  Size (nm): 159 nm
  PDI: 0.064
[2]
  EE %: 99%
[3]
  EC50 Hek293F (ng/well): 0.28 ng/well
[4]
  EC50 Hela (ng/well): 0.41 ng/well

## CCCCCC/C=C\CCCC(=O)OCC(COC(=O)C(CCCCCC)CCCCCCCC)N1CCC2(CCN(CCCCO)CC2)CC1 (centres unmarked) [Example 43, 3-((2-hexyldecanoyl)oxy)-2-(9-(4-hydroxybutyl)-3,9-diazaspiro[5.5]undecan-3-yl)propyl (Z)-dodec-5-enoate]
[1]
  Size (nm): 89 nm
  PDI: 0.111
[2]
  EE %: 99%
[3]
  EC50 Hek293F (ng/well): 33.3 ng/well
[4]
  EC50 Hela (ng/well): 14.2 ng/well

## CCCCCCCC(CCCCCCC)C(=O)O[C@@H]1CC2(CCN(CCCCO)CC2)C[C@H]1OC(=O)C(CCCCCCC)CCCCCCC (single isomer, unassigned) [Example 57, (2R*,3R*)-8-(4-hydroxybutyl)-8-azaspiro[4.5]decane-2,3-diyl bis(2-heptylnonanoate)]
[1]
  Size (nm): 74 nm
  PDI: 0.118
[2]
  EE %: 99%
[3]
  EC50 Hek293F (ng/well): 2.9 ng/well
[4]
  EC50 Hela (ng/well): 4.7 ng/well

## CCCCCCCCC(CCCCCC)C(=O)OCC(COC(=O)C(CCCCCC)CCCCCCCC)N1CCC2(CCN(CCCCCO)C2)CC1 (centres unmarked) [Example 17, 2-(2-(5-hydroxypentyl)-2,8-diazaspiro[4.5]decan-8-yl)propane-1,3-diyl bis(2-hexyldecanoate)]
[1]
  Size (nm): 149 nm
  PDI: 0.053
[2]
  EE %: 100%
[3]
  EC50 Hek293F (ng/well): 0.64 ng/well
[4]
  EC50 Hela (ng/well): 1.3 ng/well

## CCCCCCCCC(CCCCCC)C(=O)OCC(COC(=O)C(CCCCCC)CCCCCCCC)N1CCC2(CCN(CCCCO)CC2)CC1 (centres unmarked) [Example 23, 2-(9-(4-hydroxybutyl)-3,9-diazaspiro[5.5]undecan-3-yl)propane-1,3-diyl bis(2-hexyldecanoate)]
[1]
  Size (nm): 144 nm
  PDI: 0.090
[2]
  EE %: 100%
[3]
  EC50 Hek293F (ng/well): 0.47 ng/well
[4]
  EC50 Hela (ng/well): 1.2 ng/well

## CCCCCCCC(CCCCCCC)C(=O)OCCC(CCOC(=O)C(CCCCCCC)CCCCCCC)N1CCC2(CCN(CCCCO)CC2)CC1 [Example 47, 3-(9-(4-hydroxybutyl)-3,9-diazaspiro[5.5]undecan-3-yl)pentane-1,5-diyl bis(2-heptylnonanoate)]
[1]
  Size (nm): 147 nm
  PDI: 0.080
[2]
  EE %: 99%
[3]
  EC50 Hek293F (ng/well): 5.9 ng/well
[4]
  EC50 Hela (ng/well): 4.6 ng/well

## CCCCCCCCC(CC1CCC1)C(=O)OCC(COC(=O)C(CCCCCCCC)CC1CCC1)N1CCC2(CCN(CCCCO)CC2)CC1 (centres unmarked) [Example 30, 2-(9-(4-hydroxybutyl)-3,9-diazaspiro[5.5]undecan-3-yl)propane-1,3-diyl bis(2-(cyclobutylmethyl)decanoate)]
[1]
  Size (nm): 102 nm
  PDI: 0.030
[2]
  EE %: 99%
[3]
  EC50 Hek293F (ng/well): 12.6 ng/well
[4]
  EC50 Hela (ng/well): 3.3 ng/well

## CCCCCCCC(CCCCCCC)C(=O)O[C@@H]1CC2(CCN(CCO)CC2)C[C@H]1OC(=O)C(CCCCCCC)CCCCCCC (racemic) [Example 52, rac-(2R,3R)-8-(2-hydroxyethyl)-8-azaspiro[4.5]decane-2,3-diyl bis(2-heptylnonanoate)]
[1]
  Size (nm): 66 nm
  PDI: 0.088
[2]
  EE %: 99%
[3]
  EC50 Hek293F (ng/well): 3.3 ng/well
[4]
  EC50 Hela (ng/well): 11.0 ng/well

## CCCCCCCCC(CCC1CCC1)C(=O)OCC(COC(=O)C(CCCCCCCC)CCC1CCC1)N1CCC2(CCN(CCCCO)CC2)CC1 (centres unmarked) [Example 36, 2-(9-(4-hydroxybutyl)-3,9-diazaspiro[5.5]undecan-3-yl)propane-1,3-diyl bis(2-(2-cyclobutylethyl)decanoate)]
[1]
  Size (nm): 136 nm
  PDI: 0.059
[2]
  EE %: 99%
[3]
  EC50 Hek293F (ng/well): 1.9 ng/well
[4]
  EC50 Hela (ng/well): 2.4 ng/well

## CCCCCCCC(CCCCCCC)C(=O)OCC(COC(=O)C(CCCCCCC)CCCCCCC)N1CCC2(CCN(CCCCO)CC2)C1 [Example 14, 2-(8-(4-hydroxybutyl)-2,8-diazaspiro[4.5]decan-2-yl)propane-1,3-diyl bis(2-heptylnonanoate)]
[1]
  Size (nm): 114 nm
  PDI: 0.036
[2]
  EE %: 100%
[3]
  EC50 Hek293F (ng/well): 1.5 ng/well
[4]
  EC50 Hela (ng/well): 2.5 ng/well

## CCCCCCCCC(CCCCCC)C(=O)OCC(COC(=O)C(CCCCCC)CCCCCCCC)N1CCC2(CCN(CCCCO)C2)CC1 (centres unmarked) [Example 6, 2-(2-(4-hydroxybutyl)-2,8-diazaspiro[4.5]decan-8-yl)propane-1,3-diyl bis(2-hexyldecanoate)]
[1]
  Size (nm): 133 nm
  PDI: 0.080
[2]
  EE %: 100%
[3]
  EC50 Hek293F (ng/well): 0.42 ng/well
[4]
  EC50 Hela (ng/well): 1.1 ng/well

## CCCCCCCCC(CCCCCC)C(=O)O[C@@H]1CC2(CCN(CCCCO)CC2)C[C@H]1OC(=O)C(CCCCCC)CCCCCCCC (mixture of isomers) [Example 61, rac-(2R,3R)-8-(4-hydroxybutyl)-8-azaspiro[4.5]decane-2,3-diyl bis(2-hexyldecanoate)]
[1]
  Size (nm): 77 nm
  PDI: 0.094
[2]
  EE %: 99%
[3]
  EC50 Hek293F (ng/well): 1.0 ng/well
[4]
  EC50 Hela (ng/well): 1.6 ng/well

## CCCCCCCCC(CCCCCC)C(=O)OCC(COC(=O)C(CCCCCC)CCCCCCCC)N1CC2(CCN(CCCCO)CC2)C1 (centres unmarked) [Example 34, 2-(7-(4-hydroxybutyl)-2,7-diazaspiro [3.5]nonan-2-yl)propane-1,3-diyl bis(2-hexyldecanoate)]
[1]
  Size (nm): 130 nm
  PDI: 0.040
[2]
  EE %: 99%
[3]
  EC50 Hek293F (ng/well): 2.1 ng/well
[4]
  EC50 Hela (ng/well): 3.8 ng/well

## CCCCCCCC(CCCCCCC)C(=O)OCC(COC(=O)C(CCCCCCC)CCCCCCC)N1CCC2(CC1)CN(CCCCO)C2 [Example 20, 2-(2-(4-hydroxybutyl)-2,7-diazaspiro[3.5]nonan-7-yl)propane-1,3-diyl bis(2-heptylnonanoate)]
[1]
  Size (nm): 105 nm
  PDI: 0.073
[2]
  EE %: 98%
[3]
  EC50 Hek293F (ng/well): 0.22 ng/well
[4]
  EC50 Hela (ng/well): 0.28 ng/well
